Measured values from article PMC10434032 (Microbiology Spectrum, 2023).
Read-outs that look alike come from different tables or passages of the source.

How the values were obtained:
in vitro [1] = settings: human
MPXV [2] = experiment: microbe, parasite or virus in culture; type: cell-based, Mpox virus; settings: for IC50 / IC90: Monkeypox virus, Huh-7, 24 h; for IC50: read-out: Anti-MPXV activity: IC50; for IC90: read-out: Anti-MPXV activity: IC90
MPXV [3] = type: cell-based, Mpox virus
MPXV [4] = type: cell-based, Mpox virus; remark: listed apart in the source
MPXV [5] = type: cell-based, Mpox virus; remark: listed apart in the source
MPXV [6] = experiment: microbe, parasite or virus in culture; type: cell-based, Mpox virus; settings: Monkeypox virus; for IC50: Vero C1008, read-out: Anti-MPXV activity: IC50; for IC90: Vero C1008, read-out: Anti-MPXV activity: IC90
ISG15 and ISG56 = type: cell-based, human
vaccinia virus (LC16m8) = type: cell-based
MPXV [7] = type: cell-based, Mpox virus; remark: listed apart in the source
[8] = test system: MPXV Liberia strain (West African strain, clade IIa); type: cell-based, Mpox virus
in vitro [9] = settings: African green monkey
[10] = test system: cowpox virus (Brighton Red); type: cell-based
[11] = test system: MPXV SPL-mpx2A7 strain (clade IIb); type: cell-based, Mpox virus
[12] = test system: MPXV Zr-599 (Congo Basin strain, clade I); type: cell-based, Mpox virus

| Compound | CC50 (in vitro [1]) [µM] | IC50 (MPXV [2]) [µM] | IC90 (MPXV [2]) [µM] | virions observed in cells by electron microscopy (MPXV [4]) | antiviral activity by treatment period (a whole life cycle 0-24 h, b entry phase 0-2 h, c postentry 2-24 h) (MPXV [5]) | IC50 (MPXV [6]) [µM] | IC90 (MPXV [6]) [µM] | expression of viral proteins (immunofluorescence) (vaccinia virus (LC16m8)) | MPXV protein expression (immunofluorescence) (MPXV [7]) | expression of viral proteins (immunofluorescence) [8] | CC50 (in vitro [9]) [µM] | expression of viral proteins (immunofluorescence) [10] | expression of viral proteins (immunofluorescence) [11] | further results |
| --- | --- | --- | --- | --- | --- | --- | --- | --- | --- | --- | --- | --- | --- | --- |
| CC[C@H](CC#N)OC(=O)N[C@@H](C)c1cccc(NC(=O)Nc2ccc(-c3cnco3)c(OC)c2)c1 [AVN-944] | > 10 | 0.015 | 0.042 |  |  |  |  |  |  |  |  |  |  |  |
| COc1c(C)c2c(c(O)c1C/C=C(\C)CCC(=O)O)C(=O)OC2 [MPA, mycophenolic acid] | > 10 | 0.94 | 3.35 | few virions were observed | significantly reduced under conditions a and c but not under condition b | 0.26 | 0.37 | clearly reduced | drastically reduced | clearly reduced | > 100 | clearly reduced | clearly reduced | effect of guanosine supplementation on MPA-mediated reduction of viral DNA levels (MPXV [3]): clearly recovered the MPA-mediated reduction of viral DNA levels in a dose-dependent manner; selectivity index (SI = CC50/IC50) (MPXV [2]): > 10.6; induction of interferon-stimulated genes ISG15 and ISG56 (ISG15 and ISG56): did not observe significant induction |
| COc1cc(NC(=O)Nc2cccc(CNC(=O)O[C@H]3CCOC3)c2)ccc1-c1cnco1 [Merimepodib, merimepodib] | > 10 | 0.29 | 0.61 |  |  |  |  |  |  |  |  |  |  |  |
| COc1c(C)c2c(c(O)c1C/C=C(\C)CCC(=O)OCCN1CCOCC1)C(=O)OC2 [Mycophenolate mofetil, mycophenolate mofetil] | > 10 | 0.34 | 1.08 |  |  |  |  |  |  |  |  |  |  |  |
| NC(=O)c1ncn([C@@H]2O[C@H](CO)[C@@H](O)[C@H]2O)n1 [Ribavirin, ribavirin] | > 100 | 13 | 44 |  |  |  |  |  |  |  |  |  |  |  |
| CCCCCCCCCCCCCCCCOCCCOP(=O)(O)CO[C@H](CO)Cn1ccc(N)nc1=O [brincidofovir] |  |  |  |  | significant antiviral activity in conditions a and c but not in condition b | 2.1 | 4.29 |  |  |  | > 10 |  |  | number of surviving cells (fold relative to DMSO-treated control cells) [12]: 103 fold |
| Nc1ccn([C@@H]2O[C@H](CO)[C@@H](O)C2(F)F)c(=O)n1 [gemcitabine] |  |  |  | few virions were observed | significantly reduced under conditions a and c but not under condition b | 0.024 | 0.026 | clearly reduced | drastically reduced | clearly reduced | > 100 | clearly reduced | clearly reduced |  |
| O=C(NN1C(=O)[C@@H]2[C@@H]3C=C[C@@H]([C@H]4C[C@@H]34)[C@@H]2C1=O)c1ccc(C(F)(F)F)cc1 [tecovirimat] |  |  |  | crescents, immature, and mature virions but not wrapped virions were observed |  |  |  |  |  |  |  |  |  | number of surviving cells (fold relative to DMSO-treated control cells) [12]: 223 fold |
| O=c1[nH]c(=O)n([C@H]2C[C@H](O)[C@@H](CO)O2)cc1C(F)(F)F [trifluridine] |  |  |  | few virions were observed | significantly reduced under conditions a and c but not under condition b | 0.49 | 0.89 | clearly reduced | drastically reduced | clearly reduced | > 100 | clearly reduced | clearly reduced |  |
| heparin |  |  |  |  | significant antiviral activity under condition b |  |  |  |  |  |  |  |  |  |
